Assay results as given in patent US7632657B2, “Method of detecting meticillin-resistant microorganisms” (priority 2002, dated 2009).
Each block holds one compound with its values, some of them ahead of it.

Tests used:
[1] = test system: AR4295 MetiS: meticillin-sensitive strain; assay: Growth of S. aureus strains streaked on CHROMagar Staph aureus medium with antibiotic: meticillin-sensitive strain; format: cell-based, Staphylococcus aureus; set-up: key: + = colony growth; − = no growth; * = microcolonies; details: streaked dishes, 37° C. for 24 hours
Source text: (§1) Study of the growth of meticillin-resistant S. aureus strains on CHROMagar Staph aureus medium (available from the company CHROMagar, 4, Place du 18 Juin 1940, 75006 Paris France): • AR4295 MetiS: meticillin-sensitive strain • AR4297 MetiR: (homogeneous) meticillin-resistant strain • MRhet: (heterogeneous) meticillin-resistant strain • Z252: meticillin-resistant strain, homogeneous, low level of resistance
(§2) Petri dishes are inoculated with bacterial cultures by streaking the dishes, in order to observe the growth of isolated bacteria, after incubation at 37° C. for 24 hours.
(§3) The bacteria that grow give purple colonies on the culture medium, confirming that the microorganisms are Staphylococcus aureus.

[2] = test system: MRhet: (heterogeneous) meticillin-resistant strain; assay: Growth of S. aureus strains streaked on CHROMagar Staph aureus medium with antibiotic: heterogeneous meticillin-resistant strain; format: cell-based, Staphylococcus aureus; set-up: key: + = colony growth; − = no growth; * = microcolonies; details: streaked dishes, 37° C. for 24 hours
Source text: as §1, §2, §3

[3] = test system: Z252: meticillin-resistant strain, homogeneous, low level of resistance; assay: Growth of S. aureus strains streaked on CHROMagar Staph aureus medium with antibiotic: low-level resistant strain; format: cell-based, Staphylococcus aureus; set-up: key: + = colony growth; − = no growth; * = microcolonies; details: streaked dishes, 37° C. for 24 hours
Source text: as §1, §2, §3

[4] = Conservation of antibiotic activity on heating; format: physicochemical; details: temperature of greater than 100° C.; resistance verified by the inventors at 121° C.
Experimental: (its resistance having even been verified by the inventors at 121° C.).

[5] = Stability of the detection medium prepared with the antibiotic; format: physicochemical; details: added when the medium is at 48° C.
Experimental: For example, a stability of at least 2 months has been observed for a medium in accordance with the invention prepared with cefoxitin at a concentration of 5 mg/l, added to the medium when the latter is at a temperature of 48° C. The stability of the medium in accordance with the invention has been brought to at least 5 months when said medium has been prepared with cefmetazole at a concentration of 2.5 mg/l, added to the medium when the latter is at a temperature of 48° C.
The expression “stability of the medium” is intended to denote the ability of the medium in accordance with the invention to allow the selective detection of meticillin-resistant microorganisms, in particular staphylococcus aureus, for a given period of time, with the same reliability throughout the period of time.

[6] = test system: AR4297 MetiR: (homogeneous) meticillin-resistant strain; assay: Growth of S. aureus strains streaked on CHROMagar Staph aureus medium with antibiotic: homogeneous meticillin-resistant strain; format: cell-based, Staphylococcus aureus; set-up: key: + = colony growth; − = no growth; * = microcolonies; details: CHROMagar Staph aureus + Cefoxitin 5 mg/l; streaked dishes, 37° C. for 24 hours
Source text: as §1, §2, §3

[7] = CHROMagar Staph aureus + oxacillin 6 mg/ml
[8] = CHROMagar Staph aureus + Cefoxitin 5 mg/l

Structure (SMILES): Cc1onc(-c2ccccc2)c1C(=O)N[C@@H]1C(=O)N2[C@@H]1SC(C)(C)[C@@H]2C(=O)O [oxacillin]
- colony growth, AR4295 MetiS [1, 7]: −
- colony growth, MRhet [2, 7]: −
- colony growth, Z252 [3, 7]: −

- ability to conserve antibiotic activity on heating [4]: conserve its antibiotic activity
Structure (SMILES): CO[C@@]1(NC(=O)CSC(F)F)C(=O)N2C(C(=O)O)=C(CSc3nnnn3CCO)CO[C@@H]21 [flomoxef]

- stability of the medium ([5]; medium prepared with cefmetazole at 2.5 mg/l): at least 5 months
Structure (SMILES): CO[C@@]1(NC(=O)CSCC#N)C(=O)N2C(C(=O)O)=C(CSc3nnnn3C)CS[C@@H]21 [cefmetazole]

- stability of the medium ([5]; medium prepared with cefoxitin at 5 mg/l): at least 2 months
Structure (SMILES): CO[C@@]1(NC(=O)Cc2cccs2)C(=O)N2C(C(=O)O)=C(COC(N)=O)CS[C@@H]21 [Cefoxitin, cefoxitin]
- colony growth, AR4295 MetiS [1, 8]: −
- colony growth, AR4297 MetiR [6]: +
- colony growth, MRhet [2, 8]: +
- colony growth, Z252 [3, 8]: +
